Assay [1] concerns the target T1, N-terminal His6-tagged recombinant human KDR, residues 790-end (Homo sapiens, UniProt P35968).
T1 construct: recombinant human KDR, residues 790-end; His6 (N); purchased Upstate USA Inc, 706 Forest Street, Charlottesville, Va
The experiment in a line: KDR kinase inhibition assay (33P-ATP filter assay). It is filed as biochemical. A digest of the protocol:
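Radiometric filter assay: reaction started with Mg acetate (10 mM)/[γ-33P]ATP mix, run 40 min at room temperature in 8 mM MOPS pH 7.0 with 0.2 mM EDTA, MBP substrate (0.33 mg/mL) and recombinant KDR 790-end (5-10 mU). Phosphate incorporation by scintillation counting of P30 filtermats, compared with uninhibited reactions.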

In assay [2] the target is T2, N-terminal GST-tagged recombinant human Flt3, residues 564-end (Homo sapiens, UniProt P36888).
T2 construct: recombinant human Flt3, residues 564-end; GST (N); purchased Upstate USA Inc, 706 Forest Street, Charlottesville, Va
T2 sequence (P36888 564-993 limits assumed): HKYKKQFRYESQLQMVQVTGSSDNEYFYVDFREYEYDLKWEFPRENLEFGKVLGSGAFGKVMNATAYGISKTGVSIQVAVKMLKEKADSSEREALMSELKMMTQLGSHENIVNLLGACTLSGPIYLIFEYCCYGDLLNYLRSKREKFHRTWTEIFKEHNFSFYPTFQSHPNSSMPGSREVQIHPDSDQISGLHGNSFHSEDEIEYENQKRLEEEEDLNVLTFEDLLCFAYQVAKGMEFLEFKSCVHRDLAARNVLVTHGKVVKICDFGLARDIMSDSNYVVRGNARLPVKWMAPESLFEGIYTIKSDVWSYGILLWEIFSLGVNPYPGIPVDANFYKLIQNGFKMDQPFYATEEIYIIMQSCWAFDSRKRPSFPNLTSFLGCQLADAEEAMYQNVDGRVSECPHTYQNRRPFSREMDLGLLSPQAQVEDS
The experiment in a line: Flt3 kinase inhibition assay (33P-ATP filter assay). It is filed as biochemical. The following applies: 40 minutes at room temperature. A digest of the protocol:
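Serial compound dilutions incubated 40 min at room temperature with 5-10 mU Flt3 kinase, 50 μM peptide substrate and [γ-33P]ATP/10 mM magnesium acetate, pH 7.0. Phosphoric acid stop, filter capture and scintillation counting; activity compared with uninhibited reactions.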

In another assay the test system is HCT116 cells. The assay can be described thus: Whole cell cytotoxicity assay, Sulforhodamine B. It is filed as cell-based. The note with it: Homo sapiens, HCT-116, HCT116, 96 hours incubation, SRB; for GI50: read-out: GI50 HCT116 cell growth; for IC50: read-out: IC50 values in this assay (HCT116 cell growth). A digest of the protocol: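 HCT116 cells (500/well) in DMEM/10% FBS/2 mM glutamine were preincubated 24 h, then exposed to compound for 96 h at 37 °C, 5% CO2, in duplicate. Cells were fixed with TCA and stained with sulforhodamine B (A570). GI50, TGI and LC50 were derived relative to a time-zero plate and an untreated control.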

[3] abbreviates: group with IC50 greater than 100 nM.

Where only a bound is given, the exact number is not on record here.

T1 sequence (P35968 790-1356 limits assumed): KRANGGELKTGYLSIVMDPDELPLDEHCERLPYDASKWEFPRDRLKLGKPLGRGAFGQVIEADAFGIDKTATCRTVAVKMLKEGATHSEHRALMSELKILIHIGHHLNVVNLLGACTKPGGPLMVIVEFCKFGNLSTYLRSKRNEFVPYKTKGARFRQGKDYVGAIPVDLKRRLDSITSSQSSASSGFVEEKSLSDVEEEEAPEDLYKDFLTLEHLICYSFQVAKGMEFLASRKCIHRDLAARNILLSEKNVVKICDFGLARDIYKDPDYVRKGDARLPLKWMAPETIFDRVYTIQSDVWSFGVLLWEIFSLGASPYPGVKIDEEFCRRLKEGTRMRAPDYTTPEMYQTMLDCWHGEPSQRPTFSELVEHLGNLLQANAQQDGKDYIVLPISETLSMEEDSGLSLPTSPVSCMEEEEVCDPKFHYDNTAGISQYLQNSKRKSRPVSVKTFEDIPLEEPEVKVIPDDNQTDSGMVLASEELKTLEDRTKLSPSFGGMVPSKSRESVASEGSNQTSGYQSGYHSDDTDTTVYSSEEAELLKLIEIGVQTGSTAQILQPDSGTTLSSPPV

As usually defined, the IC50 is the concentration that inhibits the measured activity by half. Usually GI50 stands for the concentration giving 50% growth inhibition. For the compound `Cc1cc(Nc2cc(N3CCN(C)CC3)nc(-c3cc4ccccc4o3)n2)n[nH]1` [Compound 1, 2-(benzofuran-2-yl)-N-(5-methyl-1H-pyrazol-3-yl)-6-(4-methylpiperazin-1-yl)pyrimidin-4-amine], the IC50 in assay [1] (40 minutes at room temperature) and in assay [2] was at most 100 nM each time. Further, in the assay on HCT116 cells, the GI50 was at most 1000 nM.

For `Cc1cc(Nc2cc(N3CCN(C)CC3)nc(-c3cccc(OC(F)(F)F)c3)n2)n[nH]1` [Example 192, N-(5-methyl-1H-pyrazol-3-yl)-6-(4-methylpiperazin-1-yl)-2-(3-(trifluoromethoxy)phenyl)pyrimidin-4-amine], the figures for the IC50 (in assay [1] (setting [3]); in assay [2]; in the assay on HCT116 cells) were at most 1000 nM, at most 100 nM and 1000 to 10000 nM, respectively.

With `Cc1cc(Nc2cc(N3CCN(C)CC3)nc(-c3ccc4c(c3)OC(F)(F)O4)n2)n[nH]1` [Example 178, 2-(2,2-difluorobezo[d][1,3]dioxol-5-yl)-N-(5-methyl-1H-pyrazol-3-yl)-6-(4-methylpiperazin-1-yl)pyrimidin-4-amine], the figures for the IC50 in assay [1] (setting [3]) and in assay [2] were at most 1000 nM and at most 100 nM, respectively. In addition, the GI50 with HCT116 cells was at most 1000 nM.

Take `Cc1cc(Nc2cc(N3CCN(C)CC3)nc(-c3ccc(F)cc3)n2)n[nH]1` [Compound 32, 2-(4-fluorophenyl)-N-(5-methyl-1H-pyrazol-3-yl)-6-(4-methylpiperazin-1-yl)pyrimidin-4-amine]: the values for the half-inhibitory concentration (IC50) in assay [1] (setting [3]) and in assay [2] were at most 1000 nM and at most 100 nM, respectively. The GI50 in the assay on HCT116 cells was at most 1000 nM.

For `Cc1cc(Nc2cc(N3CCN(C)CC3)nc(-c3cccc(C(F)(F)F)c3)n2)n[nH]1` [Compound 101, N-(5-methyl-1H-pyrazol-3-yl)-6-(4-methylpiperazin-1-yl)-2-(3-(trifluoromethyl)phenyl)pyrimidin-4-amine], the IC50 in assay [1] (setting [3]) was at most 1000 nM; in assay [2] it was at most 100 nM; in the assay on HCT116 cells, 1000 to 10000 nM.

On to `Cc1cccc(-c2nc(Nc3cc(C)[nH]n3)cc(N3CCN(C)CC3)n2)c1` [Compound 39, N-(5-methyl-1H-pyrazol-3-yl)-6-(4-methylpiperazin-1-yl)-2-m-tolylpyrimidin-4-amine], for which the IC50 in assay [1] (40 minutes at room temperature) and in assay [2] was at most 100 nM in each case. In addition, the GI50 with HCT116 cells is at most 1000 nM.

Regarding `COc1ccc(-c2nc(Nc3cc(C)[nH]n3)cc(N(C)CCN(C)C)n2)cc1` [Compound 54, N^4-(2-(dimethylamino)ethyl)-2-(4-methoxyphenyl)-N^4-methyl-N^6-(5-methyl-1H-pyrazol-3-yl)pyrimidine-4,6-diamine], the IC50 in assay [1] (setting [3]) was at most 1000 nM; in assay [2], at most 100 nM. For the same compound, in the assay with HCT116 cells, the GI50 was at most 1000 nM.

For `COCCN(C)c1cc(Nc2cc(C)[nH]n2)nc(-c2cccc(N(C)C)c2)n1` [Compound 119, 2-(3-(dimethylamino)phenyl)-N^4-(2-methoxyethyl)-N^4-methyl-N^6-(5-methyl-1H-pyrazol-3-yl)pyrimidine-4,6-diamine], the IC50 in assay [1] (setting [3]) is at most 1000 nM; in assay [2] it was at most 100 nM; in the assay on HCT116 cells, 1000 to 10000 nM.

Regarding `CCc1ccccc1-c1nc(Nc2cc(C)[nH]n2)cc(N2CCN(C)CC2)n1` [Example 175, 2-(2-ethylphenyl)-N-(5-methyl-1H-pyrazol-3-yl)-6-(4-methylpiperazin-1-yl)pyrimidin-4-amine], the IC50 in assay [1] (40 minutes at room temperature) is at most 100 nM; in assay [2] it was at most 100 nM; in the assay on HCT116 cells it was 1000 to 10000 nM.

Turning to `Cc1cc(Nc2cc(NCCN3CCOCC3)nc(-c3cc4ccccc4n3C)n2)n[nH]1` [Compound 5, 2-(1-methyl-1H-indol-2-yl)-N^4-(5-methyl-1H-pyrazol-3-yl)-N^6-(2-morpholinoethyl)pyrimidine-4,6-diamine], the IC50 in assay [1] (setting [3]) is at most 1000 nM; in assay [2], at most 100 nM; in the assay with HCT116 cells it was 1000 to 10000 nM.

Consider `Cc1cc(Nc2cc(N3CCN(C)CC3)nc(-c3cc4ccccc4n3C)n2)n[nH]1` [Compound 2, 2-(1-methyl-1H-indol-2-yl)-N-(5-methyl-1H-pyrazol-3-yl)-6-(4-methylpiperazin-1-yl)pyrimidin-4-amine], for which the IC50 in assay [1] (40 minutes at room temperature) and in assay [2] was at most 100 nM in each case. Further, the GI50 with HCT116 cells is at most 1000 nM.

Values taken from US20090029992A1, “SUBSTITUTED PYRAZOLE COMPOUNDS” (priority 2007, published 2009).
